Records with an inconclusive call do not appear. Active and inactive are the calls of the source.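 How the source made its calls: active means fitted curve reaches 40% activation at or below the top valid dose, and every replicate test is called active; inconclusive means replicate tests disagree, some active and some inactive; inactive means all replicate tests inactive, including activity in the wrong direction.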

In one assay the target is Endoplasmic reticulum aminopeptidase 1 (Homo sapiens) (UniProt Q9NZ08). The assay can be described thus: ERAP1 aminopeptidase activity change, dose response, biochemical, fluorescence, cherry-pick (AID 743317). The conditions noted are these: ERAP1 enzyme, Leu-AMC fluorescence, 60 min.
Sequence of Endoplasmic reticulum aminopeptidase 1 (Homo sapiens) (Q9NZ08 whole entry, looked up): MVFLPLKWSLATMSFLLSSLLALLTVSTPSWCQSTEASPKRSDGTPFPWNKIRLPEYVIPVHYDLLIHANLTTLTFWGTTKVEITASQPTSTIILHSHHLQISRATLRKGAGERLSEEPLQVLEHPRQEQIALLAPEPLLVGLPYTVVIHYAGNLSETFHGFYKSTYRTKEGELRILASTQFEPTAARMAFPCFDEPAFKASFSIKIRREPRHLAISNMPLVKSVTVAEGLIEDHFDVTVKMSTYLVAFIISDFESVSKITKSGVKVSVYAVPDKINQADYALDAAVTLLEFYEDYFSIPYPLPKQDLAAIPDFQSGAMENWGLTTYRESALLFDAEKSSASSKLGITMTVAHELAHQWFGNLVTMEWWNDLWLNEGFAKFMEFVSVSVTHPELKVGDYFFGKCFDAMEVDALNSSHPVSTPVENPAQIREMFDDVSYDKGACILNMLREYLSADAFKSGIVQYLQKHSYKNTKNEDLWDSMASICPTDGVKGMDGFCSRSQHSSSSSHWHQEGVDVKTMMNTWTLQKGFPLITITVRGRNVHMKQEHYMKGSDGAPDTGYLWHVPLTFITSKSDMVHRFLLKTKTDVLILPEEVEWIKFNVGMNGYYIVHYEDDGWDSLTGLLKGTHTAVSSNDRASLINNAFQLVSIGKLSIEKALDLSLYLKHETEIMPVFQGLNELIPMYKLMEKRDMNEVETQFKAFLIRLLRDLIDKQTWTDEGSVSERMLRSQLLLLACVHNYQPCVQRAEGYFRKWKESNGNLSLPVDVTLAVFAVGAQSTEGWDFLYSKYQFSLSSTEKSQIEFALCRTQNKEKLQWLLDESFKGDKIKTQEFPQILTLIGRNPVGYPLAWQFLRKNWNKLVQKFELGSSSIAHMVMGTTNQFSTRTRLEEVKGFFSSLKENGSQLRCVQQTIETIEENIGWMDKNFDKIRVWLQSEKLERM
As to `O=c1cc(CN2CCN(Cc3ccccc3)CC2)c2ccc(O)cc2o1`, the AC40 was 1.68 µM.
`C[C@@H]1CCCCO[C@@H](CN(C)CC2CC2)[C@@H](C)CN([C@H](C)CO)C(=O)c2cc(NS(=O)(=O)c3cccs3)ccc2O1`: the AC40 was below 0.08 µM.
The same measure, in the same setting: then `Cc1noc(C)c1NC(=O)N(C)C[C@@H]1Oc2c(NC(=O)Nc3ccccc3)cccc2C(=O)N([C@H](C)CO)C[C@@H]1C`, with 6.45 µM; and `CCCN(C)C[C@@H]1OCCCC[C@@H](C)Oc2ccc(NS(=O)(=O)c3c(C)noc3C)cc2C(=O)N([C@H](C)CO)C[C@@H]1C`, with 1.24 µM.
With `C[C@H](CO)N1C[C@H](C)[C@H](CN(C)CC2CCCCC2)Oc2c(NC(=O)Nc3ccc(C(F)(F)F)cc3)cccc2C1=O`, the AC40 is 0.565 µM.
For `CCCN(C)C[C@@H]1OCCCC[C@@H](C)Oc2ccc(NS(=O)(=O)c3ccc(F)cc3)cc2C(=O)N([C@H](C)CO)C[C@@H]1C`, the AC40 is 3.88 µM.
The same measure, in the same setting: under `CCCN(C)C[C@@H]1OCCCC[C@H](C)Oc2ccc(NC(=O)Nc3ccc(F)cc3)cc2C(=O)N([C@H](C)CO)C[C@@H]1C` stands 4.37 µM; under `COc1ccc(CN(C)C[C@H]2OCCCC[C@@H](C)Oc3ccc(NS(=O)(=O)c4cccs4)cc3C(=O)N([C@@H](C)CO)C[C@@H]2C)cc1`, 4.59 µM; under `C[C@@H]1CCCCO[C@@H](CN(C)Cc2ccccc2)[C@H](C)CN([C@H](C)CO)C(=O)c2cc(NS(=O)(=O)c3cccs3)ccc2O1`, 0.528 µM.
Regarding `Cc1noc(C)c1S(=O)(=O)Nc1ccc2c(c1)C(=O)N([C@H](C)CO)C[C@@H](C)[C@@H](CN(C)CC1CCCCC1)OCCCC[C@@H](C)O2`, the AC40 is 5.46 µM.
Take `COc1ccc(CN(C)C[C@@H]2OCCCC[C@H](C)Oc3ccc(NS(=O)(=O)c4cccs4)cc3C(=O)N([C@H](C)CO)C[C@@H]2C)cc1`: the AC40 was 7.89 µM.
With `COc1ccc(NC(=O)Nc2ccc3c(c2)C(=O)N([C@H](C)CO)C[C@@H](C)[C@@H](CN(C)Cc2ccc(C(=O)O)cc2)OCCCC[C@@H](C)O3)cc1`, the AC40 was 0.652 µM.
On the same count and under the same terms, under `C[C@@H]1CCCCO[C@@H](CN(C)CC2CC2)[C@@H](C)CN([C@H](C)CO)C(=O)c2cc(NS(=O)(=O)c3ccc(Cl)cc3)ccc2O1` stands 0.0973 µM; under `N#Cc1c(N)n(CCNC(=O)c2ccccc2)c2nc3ccccc3nc12`, 10 µM; under `COc1ccc(CN(C)C[C@@H]2OCCCC[C@@H](C)Oc3ccc(NS(=O)(=O)c4cccs4)cc3C(=O)N([C@@H](C)CO)C[C@H]2C)cc1`, 0.577 µM.
As to `Cc1noc(C)c1S(=O)(=O)Nc1ccc2c(c1)C(=O)N([C@H](C)CO)C[C@H](C)[C@H](CN(C)Cc1ccc3c(c1)OCO3)OCCCC[C@@H](C)O2`, the AC40 was 2.35 µM.
The same measure, in the same setting: then `COc1ccc(CNCc2c(O)c(Cl)cc3c(C)c(C)c(=O)oc23)c(OC)c1`, with 2.19 µM.
On to `COc1cccc(CN(C)Cc2cc(=O)oc3cc(O)c(Cl)cc23)c1`, for which the AC40 is 2.9 µM.
In the case of `CNC[C@H]1OCCCC[C@@H](C)Oc2ccc(NS(=O)(=O)c3ccc(C)cc3)cc2C(=O)N([C@@H](C)CO)C[C@H]1C`, the AC40 is 3.42 µM.
On to `O=C(C[C@H]1CC[C@H]2[C@@H](COC[C@@H](O)CN2C(=O)Nc2cccc(Cl)c2)O1)N1CCCCC1`, for which the AC40 was 0.211 µM.
Same read-out and setting: then `C[C@@H]1CCCCO[C@@H](CN(C)C(=O)CCC(F)(F)F)[C@@H](C)CN([C@@H](C)CO)C(=O)c2cc(NS(=O)(=O)c3ccc(Cl)cc3)ccc2O1`, with 0.191 µM; and `C[C@H]1CN([C@@H](C)CO)C(=O)c2cccc(NC(=O)Nc3ccc(C(F)(F)F)cc3)c2O[C@@H]1CN(C)C`, with 1.41 µM; and `COc1cc2cc(C(=O)N3CCN(Cc4ccc5c(c4)OCO5)CC3)c(=O)oc2cc1OC`, with 4.58 µM.
Regarding `CCCN(C)C[C@@H]1OCCCC[C@@H](C)Oc2ccc(NS(=O)(=O)c3ccccc3)cc2C(=O)N([C@H](C)CO)C[C@@H]1C`, the AC40 was 1.04 µM.
As for `O=C(Nc1ccc(C(F)(F)F)cc1)N1[C@@H]2CNC[C@H]1C2c1ccc(-c2ccncc2)cc1` (some centres not stated), the AC40 was 7.23 µM.
`CCCN(C)C[C@@H]1OCCCC[C@@H](C)Oc2ccc(NS(=O)(=O)c3cccs3)cc2C(=O)N([C@H](C)CO)C[C@@H]1C`: the AC40 was 0.107 µM.
On to `C[C@@H]1CCCCO[C@@H](CN(C)CC2CCCCC2)[C@H](C)CN([C@@H](C)CO)C(=O)c2cc(NC(=O)Nc3ccccc3)ccc2O1`, for which the AC40 was 0.357 µM.
On the same count and under the same terms, under `Cc1noc(C)c1NC(=O)N(C)C[C@@H]1Oc2c(NC(=O)Nc3ccc(F)cc3)cccc2C(=O)N([C@H](C)CO)C[C@@H]1C` stands 5.64 µM; under `C[C@H]1CN([C@@H](C)CO)C(=O)c2cccc(NC(=O)Nc3ccc(C(F)(F)F)cc3)c2O[C@@H]1CN(C)CC1CC1`, 0.541 µM.
On the same count and under the same terms, then `C[C@@H]1CCCCO[C@H](CN(C)C)[C@H](C)CN([C@H](C)CO)C(=O)c2cc(NS(=O)(=O)c3ccc(Cl)cc3)ccc2O1`, with 0.548 µM; and `C[C@@H]1CN([C@H](C)CO)C(=O)c2cccc(NC(=O)Nc3ccccc3)c2O[C@@H]1CN(C)Cc1ccc(C(=O)O)cc1`, with 3.61 µM.
The same measure, in the same setting: then `C[C@@H]1CCCCO[C@@H](CN(C)C)[C@@H](C)CN([C@H](C)CO)C(=O)c2cc(NS(=O)(=O)c3ccc(Cl)cc3)ccc2O1`, with 0.381 µM; and `CC(=O)Oc1cc2oc(=O)cc(C)c2cc1Cl`, with 1.02 µM.
Consider `COc1ccc(CN(C)C[C@@H]2OCCCC[C@H](C)Oc3ccc(NS(=O)(=O)c4cccs4)cc3C(=O)N([C@@H](C)CO)C[C@@H]2C)cc1`, for which the AC40 is 1.19 µM.
On the same count and under the same terms, then `C[C@@H]1CCCCO[C@H](CN(C)Cc2ccc(C(=O)O)cc2)[C@@H](C)CN([C@H](C)CO)C(=O)c2cc(NC(=O)Nc3ccc(C(F)(F)F)cc3)ccc2O1`, with below 0.16 µM; and `Cc1ccc(S(=O)(=O)Nc2ccc3c(c2)C(=O)N([C@@H](C)CO)C[C@H](C)[C@H](CN(C)C)OCCCC[C@@H](C)O3)cc1`, with 0.48 µM.
Same read-out and setting: under `CC1CN(Cc2cc(=O)oc3cc(O)c(Cl)cc23)CC(C)O1` (configuration not stated) stands 3.4 µM; under `O=c1cc(CN2CCOCC2)c2cc(Cl)c(O)cc2o1`, 4.84 µM.
For the compound `C[C@H](CO)N1C[C@H](C)[C@H](CN(C)CC2CCCCC2)Oc2c(NC(=O)Nc3ccc4c(c3)OCO4)cccc2C1=O`, the AC40 was 2.55 µM.
`C[C@@H]1CCCCO[C@H](CN(C)Cc2ccc(C(=O)O)cc2)[C@H](C)CN([C@@H](C)CO)C(=O)c2cc(NC(=O)Nc3ccc(C(F)(F)F)cc3)ccc2O1`: the AC40 is 0.0919 µM.
Still for that read-out and setting: under `O=C(O)c1cccc(NC(=O)c2ccccc2NC(=O)c2cccc([N+](=O)[O-])c2)c1` stands 0.967 µM; under `C[C@@H]1CCCCO[C@@H](CN(C)Cc2ccc(C(=O)O)cc2)[C@H](C)CN([C@@H](C)CO)C(=O)c2cc(NS(=O)(=O)c3ccc(Cl)cc3)ccc2O1`, 3.66 µM.

Staying with this assay, now noted: ERAP1 enzyme, Leu-AMC fluorescence, 60 min; at 5.6 µM (top of the series).
As to `O=c1ccc2cc(OC3O[C@H](CO)[C@@H](O)[C@H](O)[C@H]3O)c(O)cc2o1` (some centres not stated), the activity increase (activation) was -95.4% (inactive).
Still for that read-out and setting: under `CN1CCN(Cc2c(O)ccc3cc(-c4ccccn4)c(=O)oc23)CC1` stands -103% (inactive); under `CC1CCN(Cc2cc(=O)oc3cc(O)c(Cl)cc23)CC1`, -36.5% (inactive); under `O=c1ccc2cc(O[C@@H]3O[C@@H](CO)[C@H](O)[C@@H](O)[C@@H]3O)c(O)cc2o1`, -79.1% (inactive).
Same read-out and setting: under `COC(=O)Cc1c(C)c2ccc(O)c(CNCc3ccc(OC)c(OC)c3)c2oc1=O` stands -74.1% (inactive).

The assay is the same for the next values; noted with them: ERAP1 enzyme, Leu-AMC fluorescence, 60 min; at 10 µM (top of the series).
`CCN1[C@H](C(=O)Nc2nccs2)[C@@H](CO)[C@@H]2Cn3c(ccc(/C=C/c4ccccc4)c3=O)[C@@H]21`: the activity increase (activation) was -13.4% (inactive).

The same assay, now with this note: ERAP1 enzyme, Leu-AMC fluorescence, 60 min; at 11 µM (top of the series).
For `O=C(O)c1ccccc1NS(=O)(=O)c1cccc(-n2sc3ccccc3c2=O)c1`, the activity increase (activation) was -98.6% (inactive).
`O=c1oc2cc(O)ccc2cc1S(=O)(=O)c1ccccc1`: the activity increase (activation) was 349% (inactive).
In the case of `Cc1cc(=O)oc2c(CN3CCN(C)CC3)c(O)c(Cl)cc12`, the activity increase (activation) is -69.3% (inactive).
As for `CN1c2ccc(-c3ccc(C#N)cc3)cc2[C@@H]2[C@@H](CCN2C(=O)CC2CC2)[C@@H]1CO`, the activity increase (activation) is -8.63% (inactive).
Same read-out and setting: then `Cc1cc(=O)oc2c(CN3CCCC3)c(O)ccc12`, with -44% (inactive); and `CCCc1cc(=O)oc2c(CN(CC)CC)c(O)c(Cl)cc12`, with -58.6% (inactive); and `CCN1CCN(Cc2c(O)ccc3c(C)cc(=O)oc23)CC1`, with -54.6% (inactive).
On the same count and under the same terms, under `COCCCn1c(C(=O)N2CCOCC2)cc2c(=O)n3ccccc3nc21` stands -46.9% (inactive); under `O=C(CSc1cn[nH]n1)Nc1cccc(C(=O)O)c1`, -63.3% (inactive).
The same measure, in the same setting: then `CCc1cc(=O)oc2c(CNCc3c(F)cccc3Cl)c(O)ccc12`, with -60.7% (inactive); and `CCc1cc(=O)oc2c(CN3CCN(C)CC3)c(O)ccc12`, with -65.3% (inactive); and `CC(C)[C@@H](C(=O)N[C@@H](CCc1ccc(O)cc1)C(=O)O)N(C)C(=O)[C@H](CO)NC(=O)[C@@H](O)[C@H](N)CCCCCCCCl`, with -103% (inactive).
Regarding `Cc1c(CC(=O)N2CCN(C(=O)C3COc4ccccc4O3)CC2)c(=O)oc2cc(O)c(Cl)cc12` (configuration not stated), the activity increase (activation) was -33.4% (inactive).
For `CN1[C@@H]2c3ccc(/C=C/c4ccccc4)c(=O)n3C[C@@H]2[C@@H](CO)[C@@H]1C(=O)NC1CCCC1`, the activity increase (activation) is -14.6% (inactive).
In the case of `CN(C)Cc1c(O)ccc2cc(-c3nc4ccccc4n3C)c(=O)oc12`, the activity increase (activation) is -107% (inactive).
Still for that read-out and setting: then `Cc1cc(=O)oc2c(CN3CCN(CCO)CC3)c(O)ccc12`, with -61.9% (inactive); and `Cc1c(O)ccc2cc(S(=O)(=O)c3ccccc3)c(=O)oc12`, with -94% (inactive).
The same measure, in the same setting: under `COc1ccc(-c2cc3ccc(O)cc3oc2=O)cc1OC` stands -92.7% (inactive).
`C[C@@H]1CN([C@@H](C)CO)C(=O)c2cccc(NC(=O)Nc3ccc(C(F)(F)F)cc3)c2O[C@@H]1CN(C)C`: the activity increase (activation) was 30.6% (inactive).
